Source: patent publication US20240254129A1, “HETEROCYCLIC COMPOUNDS AND USES THEREOF” (Kumquat Biosciences Inc., priority 2021, published 2024)

What was measured:
[1] = biological target: GST-tagged K-Ras mutant / His-tagged hSOS1 (Homo sapiens, UniProt P01116); assay: HTRF assay, K-Ras mutant / SOS1 interaction; type: binding; details: compound nos. 401-703; read-out: IC50 against mutant Kras
Summary of the method: (§1)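 Compounds tested in duplicate from 10 μM down to 0.01 μM, incubated about 10 min or longer with GST-K-Ras/anti-GST-Eu and His-hSOS1/anti-6His-XL665 in ~5 mM HEPES pH 7.4 buffer with ~150 mM NaCl, DTT, BSA and Igepal. IC50 derived from 665/620 nm emission ratio.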

wildtype Kras / hSOS1 = biological target: T1, wildtype Kras / hSOS1 (Homo sapiens, UniProt P01116); assay: HTRF assay, wildtype Kras / SOS1 interaction; type: binding; details: compound nos. 401-703; read-out: IC50 against wildtype Kras
T1 construct: made in house; host or cells: E. coli BL21 (DE3)
T1 sequence (P01116 1-188 isoform P01116-2): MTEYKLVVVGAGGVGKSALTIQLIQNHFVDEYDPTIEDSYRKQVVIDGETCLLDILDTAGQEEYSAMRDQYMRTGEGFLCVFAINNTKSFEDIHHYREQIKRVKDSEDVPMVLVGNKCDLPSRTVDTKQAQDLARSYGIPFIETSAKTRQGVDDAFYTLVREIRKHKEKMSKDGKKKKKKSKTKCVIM
Summary of the method: as §1

Sequence of GST-tagged K-Ras mutant / His-tagged hSOS1 (P01116 whole entry G12D, form open): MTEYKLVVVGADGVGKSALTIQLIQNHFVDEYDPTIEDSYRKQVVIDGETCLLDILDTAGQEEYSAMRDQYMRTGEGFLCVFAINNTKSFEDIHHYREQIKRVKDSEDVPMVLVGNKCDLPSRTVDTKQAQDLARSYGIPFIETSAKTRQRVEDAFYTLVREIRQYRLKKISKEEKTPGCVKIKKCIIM

Row | SMILES | IC50 [1] | IC50 (wildtype Kras / hSOS1)
1 | N#Cc1c(N)sc2c(F)ccc(-c3c(Cl)cc4c(N5CCCOCC5)nc(OC[C@@]56CCCN5C[C@H](F)C6)nc4c3F)c12 [Compound 598, 2-amino-4-(6-chloro-8-fluoro-2-(((2R,7aS)-2-fluorotetrahydro-1H-pyrrol-izin-7a(5H)-yl)methoxy)-4-(1,4-oxazepan-4-yl)quin-azolin-7-yl)-7-fluorobenzo-[b]thiophene-3-carbonitrile] | < 500 nM | > 500 nM
2 | Fc1c(Br)c(Cl)cc2c(N3CCNCC(F)(F)C3)nc(OCC34CCCN3CCC4)nc12 [Compound 599, 7-bromo-6-chloro-4-(6,6-difluoro-1,4-diazepan-1-yl)-8-fluoro-2-((tetrahydro-1H-pyrrolizin-7a(5H)-yl)meth-oxy)quinazoline] | > 500 nM | > 500 nM
3 | Nc1nc2c(-c3c(Cl)cc4c(N5CCC[C@H](N)CC5)nc(OC[C@@]56CCCN5C[C@H](F)C6)nc4c3F)ccc(F)c2s1 [Compound 600, 4-(4-((S)-4-aminoazepan-1-yl)-6-chloro-8-fluoro-2-(((2R,7aS)-2-fluorotetra-hydro-1H-pyrrolizin-7a(5H)-yl)methoxy)quinazolin-7-yl)-7-fluorobenzo[d]thiazol-2-amine] | < 500 nM | > 500 nM
4 | Nc1nc2c(-c3c(Cl)cc4c(N5CC6CCC(C5)N6)nc(OC[C@@]56CCCN5C[C@H](F)C6)nc4c3F)cc(Cl)cc2s1 [Compound 601, 4-(4-(3,8-diazabicyclo-[3.2.1]octan-3-yl)-6-chloro-8-fluoro-2-(((2R,7aS)-2-fluorotetrahydro-1H-pyrrol-izin-7a(5H)-yl)methoxy)-quinazolin-7-yl)-6-chloro-benzo[d]thiazol-2-amine] | < 500 nM | > 500 nM
5 | CN1CCC[C@H]1COc1nc(N2CCNCC(F)(F)C2)c2cc(Cl)c(-c3cccc4cnc(N)nc34)c(F)c2n1 [Compound 602, 6-chloro-4-(6,6-difluoro-1,4-diazepan-1-yl)-8-fluoro-2-(((S)-1-methylpyrrolidin-2-yl)methoxy)-[7,8′-biquin-azolin]-2′-amine] | > 500 nM | > 500 nM
6 | Fc1c(-c2ccccc2-c2ccccc2)c(Cl)cc2c(N3CCCCCC3)nc(OCC34CCCN3CCC4)nc12 [Compound 603, 7-([1,1′-biphenyl]-2-yl)-4-(azepan-1-yl)-6-chloro-8-fluoro-2-((tetrahydro-1H-pyrrolizin-7a(5H)-yl)meth-oxy)quinazoline] | > 500 nM | > 500 nM
7 | Nc1nc2c(-c3c(Cl)cc4c(N5CCNC(=O)CC5)nc(OC[C@@]56CCCN5C[C@H](F)C6)nc4c3F)ccc(F)c2s1 [Compound 604, 1-(7-(2-amino-7-fluoroben-zo[d]thiazol-4-yl)-6-chloro-8-fluoro-2-(((2R,7aS)-2-fluorotetrahydro-1H-pyrrol-izin-7a(5H)-yl)methoxy)-quinazolin-4-yl)-1,4-diazepan-5-one] | < 500 nM | > 500 nM
8 | N#Cc1c(N)sc2c(F)ccc(-c3c(Cl)cc4c(N5CC6CCC(C5)N6C5CCOC5)nc(OC[C@@]56CCCN5C[C@H](F)C6)nc4c3F)c12 (stereo partly drawn) [Compound 605, 2-amino-4-(6-chloro-8-fluoro-2-(((2R,7aS)-2-fluoro-tetrahydro-1H-pyrrolizin-7a(5H)-yl)methoxy)-4-((1R,5S)-8-(tetrahydro-furan-3-yl)-3,8-diazabicyclo-[3.2.1]octan-3-yl)quinazolin-7-yl)-7-fluorobenzo[b]thio-phene-3-carbonitrile] | < 500 nM | > 500 nM
9 | Nc1ccc2cccc(-c3c(Cl)cc4c(N5CC6CCC(C5)N6)nc(OC[C@@]56CCCN5C[C@H](F)C6)nc4c3F)c2n1 [Compound 606, 8-(4-(3,8-diazabicyclo-[3.2.1]octan-3-yl)-6-chloro-8-fluoro-2-(((2R,7aS)-2-fluorotetrahydro-1H-pyrrol-izin-7a(5H)-yl)methoxy)-quinazolin-7-yl)quinolin-2-amine] | > 500 nM | > 500 nM
10 | Nc1nc2c(-c3c(Cl)cc4c(N5CC6CCCC(C5)N6)nc(OC[C@@]56CCCN5C[C@H](F)C6)nc4c3F)ccc(F)c2s1 [Compound 607, 4-(4-(3,9-diazabicyclo-[3.3.1]nonan-3-yl)-6-chloro-8-fluoro-2-(((2R,7aS)-2-fluorotetrahydro-1H-pyrrol-izin-7a(5H)-yl)methoxy)-quinazolin-7-yl)-7-fluoro-benzo[d]thiazol-2-amine] | < 500 nM | > 500 nM
11 | Oc1cc(-c2ccc3c(N4CC5CCC(C4)N5)nc(OC[C@]45CCCN4C[C@@H](F)C5)nc3c2OCC(F)(F)F)c2ccccc2c1 [Compound 608, 4-(4-(3,8-diazabicyclo-[3.2.1]octan-3-yl)-2-(((2S,7aR)-2-fluorotetra-hydro-1H-pyrrolizin-7a(5H)-yl)methoxy)-8-(2,2,2-trifluoroethoxy)-quinazolin-7-yl)naph-thalen-2-ol] | > 500 nM | > 500 nM
12 | C#Cc1cccc2cc(O)cc(-c3ccc4c(N5CCNCC(F)(F)C5)nc(OC[C@@]56CCCN5C[C@H](F)C6)nc4c3F)c12 [Compound 609, 4-(4-(6,6-difluoro-1,4-diazepan-1-yl)-8-fluoro-2-(((2R,7aS)-2-fluorotetra-hydro-1H-pyrrolizin-7a(5H)-yl)methoxy)quin-azolin-7-yl)-5-ethynylnaph-thalen-2-ol] | < 500 nM | > 500 nM
13 | Cc1ccc2cn[nH]c2c1-c1c(Cl)cc2c(N3CC4CCC(C3)N4)nc(OC[C@@]34CCCN3C[C@H](F)C4)nc2c1F [Compound 611, 4-(3,8-diazabicyclo[3.2.1]-octan-3-yl)-6-chloro-8-fluoro-2-(((2R,7aS)-2-fluorotetrahydro-1H-pyrrol-izin-7a(5H)-yl)methoxy)-7-(6-methyl-1H-indazol-7-yl)-quinazoline] | > 500 nM | > 500 nM
14 | Nc1nc2c(-c3ccc4c(N5CC6CCC(C5)N6)nc(OC[C@@]56CCCN5C[C@H](F)C6)nc4c3F)ccc(F)c2s1 [Compound 612, 4-(4-(3,8-diazabicyclo-[3.2.1]octan-3-yl)-8-fluoro-2-(((2R,7aS)-2-fluorotetra-hydro-1H-pyrrolizin-7a(5H)-yl)methoxy)quinazolin-7-yl)-7-fluorobenzo[d]thiazol-2-amine] | > 500 nM | > 500 nM
15 | Oc1cc(-c2c(Cl)cc3c(N4CC5CCC(C4)N5)nc(OCC45CCCN4CCC5)nc3c2F)cc(C(F)(F)F)c1 [Compound 614, 3-(4-(3,8-diazabicyclo-[3.2.1]octan-3-yl)-6-chloro-8-fluoro-2-((tetrahydro-1H-pyrrolizin-7a(5H)-yl)meth-oxy)quinazolin-7-yl)-5-(trifluoromethyl)phenol] | > 500 nM | > 500 nM
16 | Nc1nc2c(-c3c(Cl)cc4c(N5CC6CCC(C5)N6)nc(OCC56CCCN5CCC6)nc4c3F)cc(Cl)cc2s1 [Compound 615, 4-(4-(3,8-diazabicyclo-[3.2.1]octan-3-yl)-6-chloro-8-fluoro-2-((tetrahydro-1H-pyrrolizin-7a(5H)-yl)meth-oxy)quinazolin-7-yl)-6-chlorobenzo[d]thiazol-2-amine] | < 500 nM | > 500 nM
17 | CC(C)CN1[C@@H]2CC[C@H]1CN(c1nc(OCC34CCCN3CCC4)nc3c(F)c(-c4ccc(F)c5sc(N)nc45)c(Cl)cc13)C2 [Compound 617, 4-(6-chloro-8-fluoro-4-((1R,5S)-8-isobutyl-3,8-diazabicyclo[3.2.1]octan-3-yl)-2-((tetrahydro-1H-pyrrolizin-7a(5H)-yl)meth-oxy)quinazolin-7-yl)-7-fluorobenzo[d]thiazol-2-amine] | < 500 nM | > 500 nM
18 | Nc1cc2cccc(-c3c(Cl)cc4c(N5CC6CCC(C5)N6)nc(OCC56CCCN5CCC6)nc4c3F)c2cn1 [Compound 618, 8-(4-(3,8-diazabicyclo-[3.2.1]octan-3-yl)-6-chloro-8-fluoro-2-((tetrahydro-1H-pyrrolizin-7a(5H)-yl)meth-oxy)quinazolin-7-yl)iso-quinolin-3-amine] | > 500 nM | > 500 nM
19 | Fc1c(-c2cccc3c2CCCC3)c(Cl)cc2c(N3CC4CCC(C3)N4)nc(OC[C@@]34CCCN3C[C@H](F)C4)nc12 [Compound 619, 4-(3,8-diazabicyclo[3.2.1]-octan-3-yl)-6-chloro-8-fluoro-2-(((2R,7aS)-2-fluorotetrahydro-1H-pyrrol-izin-7a(5H)-yl)methoxy)-7-(5,6,7,8-tetrahydronaph-thalen-1-yl)quinazoline] | > 500 nM | > 500 nM
20 | Nc1nc2c(-c3c(Cl)cc4c(N5CCCNCC5)nc(OC[C@@]56CCCN5C[C@H](F)C6)nc4c3F)ccc(F)c2s1 [Compound 621, 4-(6-chloro-4-(1,4-diazepan-1-yl)-8-fluoro-2-(((2R,7aS)-2-fluorotetrahydro-1H-pyrrolizin-7a(5H)-yl)meth-oxy)quinazolin-7-yl)-7-fluorobenzo[d]thiazol-2-amine] | < 500 nM | > 500 nM
21 | Nc1nc2c(-c3c(Cl)cc4c(N5CCC6CNCC6C5)nc(OC[C@@]56CCCN5C[C@H](F)C6)nc4c3F)ccc(F)c2s1 (stereo partly drawn) [Compound 623, 4-(6-chloro-8-fluoro-2-(((2R,7aS)-2-fluorotetra-hydro-1H-pyrrolizin-7a(5H)-yl)methoxy)-4-(octahydro-5H-pyrrolo[3,4-c]pyridin-5-yl)quinazolin-7-yl)-7-fluoro-benzo[d]thiazol-2-amine] | < 500 nM | > 500 nM
22 | Nc1cc(-c2c(Cl)cc3c(N4CC5CCC(C4)N5)nc(OCC45CCCN4CCC5)nc3c2F)ccc1F [Compound 627, 5-(4-(3,8-diazabicyclo-[3.2.1]octan-3-yl)-6-chloro-8-fluoro-2-((tetrahydro-1H-pyrrolizin-7a(5H)-yl)meth-oxy)quinazolin-7-yl)-2-fluoroaniline] | > 500 nM | > 500 nM
